Consider ten compounds from PMC6190829 (Journal of medicinal chemistry, 2018).

Molecules are shown by their SMILES. “And” between values parts separate entries of the source, which are not always exact repeats. Identical values can stand only once. “Also recorded” adds a separate entry of the source.

In series [1] the test system is HaCaT cells. In words: Immunoblot of NRF2, NQO1, GCLM protein levels. Format: cell-based, human. Particulars: 10 μM.
Series [2] is described as follows: Kinetic aqueous solubility in buffer pH 7.4. Format: physicochemical.
The subject of series [3] is HaCaT cells. The experiment in a line: Nuclear accumulation of NRF2. It counts as cell-based, human. Particulars: 10 μM, 6 and 24 hours, vs DMSO control.
Series [4] relates to HaCaT cells. The experiment in a line: NRF2 target gene mRNA expression. Particulars: 10 μM. Format: cell-based, human.
The conditions of series [5]: cited from earlier work.
Series [6] is described as follows: Microsomal stability, mouse liver microsomes. Format: in vitro ADME. Particulars: 1 μM, 20 min, NADPH. In general terms: Liver microsomes are a subcellular fraction often used to study metabolism.
The nature of the next series: Solubility in DMSO. It counts as physicochemical.
In series [7] the test system is Salmonella typhimurium (TA98, TA100, TA1535, TA1537). The experiment in a line: Mini-Ames assay, revertant colonies per strain. Particulars: for Dose response of revertant increase: 6a: TA98 and TA100. (The Ames test uses bacterial strains that need an amino acid and regain growth without it when mutated back.)
Series [8] deals with Salmonella typhimurium (TA98, TA100, TA1535, TA1537) and Escherichia coli (WP2 uvrA (pKM101)). In words: Mini-Ames assay, cytotoxicity and overall judgement over all strains. Particulars: for Cytotoxicity in Mini-Ames assay: 1.5-1000 μg/well, any dose level; for Mutagenicity judgement: Mini-Ames, with and without S9.
For series [9], the target named is T1, Kelch domain of KEAP1 (Homo sapiens, UniProt Q14145). The experiment in a line: Fluorescence anisotropy. Particulars: IC50 (nM) (95% CI), fluorescent NRF2 peptide / KEAP1 Kelch domain. A general note: Fluorescence polarisation rises when a labelled molecule tumbles more slowly, as on binding a larger partner.
For series [10], the target named is T1, Kelch domain of KEAP1. The experiment in a line: Surface plasmon resonance assay.
Where [11] appears, read: with S9 mix, higher dose levels, vs vehicle control.

As usually defined, the solubility is the dissolved amount per volume that the medium holds. Read a low solubility as a poorly soluble substance. For orientation: IC50 means the concentration at which inhibition is half-maximal. As usually defined, the Kd is the equilibrium constant for the complex coming apart.

T1 sequence (Q14145 321-609 limits assumed): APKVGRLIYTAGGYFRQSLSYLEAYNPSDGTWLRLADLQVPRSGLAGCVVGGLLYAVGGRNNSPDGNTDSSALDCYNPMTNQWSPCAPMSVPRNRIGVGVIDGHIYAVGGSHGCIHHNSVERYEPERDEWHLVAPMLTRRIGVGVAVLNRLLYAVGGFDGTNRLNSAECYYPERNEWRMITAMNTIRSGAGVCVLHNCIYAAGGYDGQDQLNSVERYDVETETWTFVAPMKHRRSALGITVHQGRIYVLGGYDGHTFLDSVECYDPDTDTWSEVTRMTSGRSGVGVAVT

In the case of `CC1(C)CC[C@]2(C(=O)n3ccnc3)CC[C@]3(C)[C@H](C(=O)C=C4[C@@]5(C)C=C(C#N)C(=O)C(C)(C)[C@@H]5CC[C@]43C)[C@@H]2C1` [CDDO-Im, reference compound], in the series with HaCaT cells [1] (24 h, vs vehicle), the GCLM protein level entry is recorded as “significantly higher”, the NQO1 protein level result is listed as “higher” and the NRF2 protein level result is listed as “higher”.
With `COc1ccc(S(=O)(=O)Nc2ccc(NS(=O)(=O)c3ccc(OC)cc3)c3ccccc23)cc1` [Compound 5], in [2], the “Aqueous solubility” value is “modest aqueous solubilities”.
For `COc1ccc(S(=O)(=O)N(CC(=O)O)c2ccc(N(CC(=O)O)S(=O)(=O)c3ccc(OC)cc3)c3ncccc23)cc1` [Compound 23], in the series with HaCaT cells [1] (6 h, vs DMSO), the NQO1 protein level entry is given as “modest increase” and the NRF2 protein level result is “modest increase”. In the series on HaCaT cells [1] (24 h, vs vehicle), the GCLM protein level entry is “modestly increased”, the NQO1 protein level result is “no effect” and the NRF2 protein level entry was “no effect”. In addition, the “NRF2 accumulation in the nucleus” value in the series with HaCaT cells [3] was “small significant increase; also recorded: modest increase”. In addition, the “SOD mRNA expression (not an NRF2 target gene)” value in the series on HaCaT cells [4] was “neither isoquinoline 17 nor quinoline 23 produced a significant increase”. Besides, in the series on HaCaT cells [4] (6 and 24 hours), the “GCLC mRNA expression” value is on record as “small increase”, the “GCLM mRNA expression” value is given as “small increase”, the “HMOX1 mRNA expression” value was “no increase” and the “NQO1 mRNA expression” value is listed as “small increase”.
With `Cc1cc(C)c(C)c(S(=O)(=O)Nc2ccc(N3CC[C@H](C(=O)O)C3)c3ccccc23)c1C` [RA-839], the In vivo activity entry in series [5] (ref Winkel et al.[31]) is listed as “active in vivo only if Phase 1 metabolism were inhibited”. The In vivo metabolism result in series [5] (ref [31]) is “metabolized quickly in vivo”.
As to `COc1ccc(S(=O)(=O)N(CC(=O)O)c2ccc(N(CC(=O)O)S(=O)(=O)c3ccc(OC)cc3)c3ccccc23)cc1` [Compound 6a], in [6], the “Compound remaining after incubation, mouse liver microsomes” value is listed as “stable”. In the series “Solubility in DMSO”, the solubility was not above 50 mg/mL. For the same compound, in series [7], the “Dose response of revertant increase” value is “Dose response was also observed”. Moreover, in series [7] (setting [11]), the “Increase in revertants, TA100” value was more than 2 fold and the “Increase in revertants, TA1535” value is more than 3 fold. Also, in [8], the “Cytotoxicity in Mini-Ames assay” value was “No cytotoxicity” and the Mutagenicity judgement result is given as “positive for mutagenicity”.
Turning to `COc1ccc(S(=O)(=O)N(CC(=O)O)c2cc(-c3ccccc3)cc(N(CC(=O)O)S(=O)(=O)c3ccc(OC)cc3)c2)cc1` [Compound 46, 2,2’-(1,1’-biphenyl]-3,5-diylbis(((4-methoxyphenyl)sulfonyl)azanediyl) diacetic acid], at Kelch domain of KEAP1 [9], the IC50 is more than 25000 nM.
On to `COc1ccc(S(=O)(=O)N(CC(=O)O)c2cnc(N(CC(=O)O)S(=O)(=O)c3ccc(OC)cc3)c3ccccc23)cc1` [Compound 17, 2,2’-(isoquinoline-1,4-diylbis(((4-methoxyphenyl)sulfonyl)azanediyl))diacetic acid], for which, in the series with HaCaT cells [1] (24 h, vs vehicle), the GCLM protein level result is reported as “significantly higher”, the NQO1 protein level result was “Increased” and the NRF2 protein level entry was “Increased”. Also, the “SOD mRNA expression (not an NRF2 target gene)” value with HaCaT cells [4] is on record as “neither isoquinoline 17 nor quinoline 23 produced a significant increase”. Also, in the series on HaCaT cells [4] (6 hours), the “GCLC mRNA expression” value is given as “significant increase”, the “GCLM mRNA expression” value was “significant increase” and the “HMOX1 mRNA expression” value was “significant increase”. Moreover, the “NQO1 mRNA expression” value with HaCaT cells [4] (24 hours) is “increase”. Further, the “Dose response of revertant increase” value in series [7] was “No dose response was observed”. In series [8], the “Cytotoxicity in Mini-Ames assay” value is given as “No cytotoxicity” and the Mutagenicity judgement result is “better mutagenic profile than naphthalene 6a”.
As to `COc1ccc(S(=O)(=O)Nc2nnc(N(CC(=O)O)S(=O)(=O)c3ccc(OC)cc3)c3ccccc23)cc1` [Compound 34, N-(4-((4-methoxyphenyl)sulfonamido)phthalazin-1-yl)-N-((4-methoxyphenyl)sulfonyl)glycine], in the series on HaCaT cells [1] (6 h, vs DMSO), the NQO1 protein level entry is on record as “no increase” and the NRF2 protein level entry is “no increase”. Also, the “Compound remaining after incubation, mouse liver microsomes” value in [6] is given as “comparable to the other compounds”. Moreover, the Kd on Kelch domain of KEAP1 [10] was more than 10000 nM. Besides, on Kelch domain of KEAP1 [9], the IC50 was 1000 nM and 1100 nM.
As for `COc1ccc(S(=O)(=O)N(CC(N)=O)c2ccc(N(CC(N)=O)S(=O)(=O)c3ccc(OC)cc3)c3ccccc23)cc1` [Compound 6b], the “Aqueous solubility” value in [2] is “poor solubility”. In addition, in the series with HaCaT cells [1] (6 h, vs DMSO), the NQO1 protein level entry was “modest increase” and the NRF2 protein level result is given as “modest increase”. Moreover, in the series with HaCaT cells [1] (24 h, vs vehicle), the GCLM protein level result is listed as “significantly higher”, the NQO1 protein level entry is reported as “Increased” and the NRF2 protein level result is listed as “Increased”.
As to `COc1ccc(S(=O)(=O)N(CC(=O)O)c2ccc(N(CC(=O)O)S(=O)(=O)c3ccc(OC)cc3)c3[nH]ccc23)cc1` [Compound 29, 2,2’-((1H-indole-4,7-diyl)bis(((4-methoxyphenyl)sulfonyl)azanediyl))diacetic acid], in “Compound stability”, the “Stability of the compound” value is reported as “unstable”.
